Results on one molecule are retold here after patent publication US11090292B2, “Compositions and methods of use of an inappetance-controlling compound” (Aratana Therapeutics, Inc., priority 2012, dated 2021).

The subject of one data set is IGF-1. Kind of data set: Example 4: serum IGF-1 concentration. The data set is classed as in vivo, Beagle dogs. The procedure: A controlled, seven-day study was performed to assess the impact of different capromorelin-dosing regimens on the production of IGF-1, GH, and cortisol. The different capromorelin-dosing regimens were also assessed for the impact on food intake and changes in body mass.
[…] were divided into one of three treatment groups, with one negative control group and two active treatment groups. Each of the three treatment groups included three males and three females. The first group received a placebo formulation (i.e., deionized water) twice per day, via oral gavage. The second group received a once-daily dose of the capromorelin composition at a concentration of 3 mg/kg, via oral gavage. The third group received a twice-daily dose of the capromorelin composition at a concentration of 3 mg/kg, via oral gavage.
(§1) During the ten day study period, on an at least once-daily basis, each of the dogs was monitored for clinical observations, mortality, moribundity, body mass, acceptability/palatability, and food consumption. Serum samples were taken to measure capromorelin concentration, GH concentration, IGF-1 concentration, and cortisol concentration. Serum samples were taken on days 1, 2, 4, and 7 at −15 minutes (pre-dose), immediately prior to dosing (0 minutes) and 30, 45, 60, 90, 120, 240, 360, and/or 480 minutes post dosing. Additional serum samples were taken at 8 AM on Day 10 of the study to assess long-term impact of the active treatments.

Data set [1] can be described thus: Example 4: clinical observations / toxicological responses. The data set is classed as in vivo. Particulars: 3 mg/kg once or twice daily, 7 days. The procedure:
as §1

The nature of data set [2]: Example 12: food consumption. The class given is in vivo, cats. Particulars: IV 0.75 mg/kg or oral 3 mg/kg, short treatment. As for the experimental part:
Similar to some of the other pharmacokinetic analyses conducted in dogs and cats, an additional pharmacokinetic study was conducted in cats to assess capromorelin formulations that allow sufficient drug to circulate to produce appetite stimulation and to define the capromorelin pharmacokinetic profile in cats. Briefly, twelve cats were randomized into Group 1 (six cats) and Group 2 (six cats). Group 1 received an intravenous formulation that included 0.75 mg/kg of capromorelin dissolved in sterile water and Group 2 received a previously tested formulation via oral gavage. Food consumption was determined daily for all cats. Specifically, animals were offered feed at approximately 11:00 AM, with the removal of feed at approximately 3:00 PM. Upon removal of feed, the amount consumed was calculated.

Data set [3] is described as follows: Example 9: clinical observations / toxicological responses. The class given is in vivo. Particulars: injection 0.75 or 2 mg/kg, oral 2 or 4 mg/kg, once daily. The procedure: During the seven day study period, on an at least once-daily basis, each of the cats was monitored for clinical observations, mortality, moribundity, body mass, acceptability/palatability, and food consumption. Serum samples were taken to measure capromorelin concentration, IGF-1 concentration, and cortisol concentration. Serum samples were taken on days 1 and 4 immediately prior to dosing (0 minutes) and 30, 60, 90, 120, 240, 360, and/or 480 minutes post dosing. Additional serum samples were taken at 8 AM on Day 7 of the study to assess long-term impact of the active treatments.

For data set [4], the system named is insulin-like growth factor 1 (IGF-1). Kind of data set: Example 1: serum IGF-1 concentration. The class given is in vivo, Beagle dogs. The procedure:
A controlled, seven-day study was performed to assess the impact of different capromorelin-dosing regimens on the production of insulin-like growth factor 1 (hereinafter “IGF-1”), growth hormone (hereinafter “GH”), and cortisol. The different capromorelin-dosing regimens were also assessed for the impact on food intake and changes in body mass.
Eighteen adult non-naïve Beagle dogs (nine males and nine females) were divided into one of three treatment groups. Each of the three treatment groups included three males and three females. Group A, which was the control group, was dosed twice per day, via oral gavage, with a vehicle (deionized water alone) and was used as a baseline data point for comparison against the active treatment regimens. Group B comprised an active treatment group that received two treatments per day, via oral gavage, with a capromorelin-containing composition with a concentration of 3 mg/kg capromorelin per treatment. Finally, Group C comprised an active treatment group that received one treatment per day, via oral gavage, with a capromorelin-containing composition with a concentration of 6 mg/kg capromorelin per treatment.
During the ten day study period, on an at least once-daily basis, each of the dogs was monitored for clinical observations, mortality, morbidity, body mass, and food consumption. […]

For the molecule `CN1N=C2CCN(C(=O)[C@@H](COCc3ccccc3)NC(=O)C(C)(C)N)C[C@@]2(Cc2ccccc2)C1=O.O=C(O)C(O)C(O)C(=O)O` [capromorelin], the “serum IGF-1 levels versus deionized water three days after terminating treatment” value (with IGF-1 (Day 10); in data set [4] (Day 10)) was “not significantly different” each time. Further, the “increase in serum IGF-1 concentration at eight hours post administration relative to time 0” value is reported as “approximately 83.9%” in the data set with IGF-1 (once-daily 3 mg/kg, day 1); “approximately 39.5%” in the data set on IGF-1 (once-daily 3 mg/kg, day 4); approximately 36.8% in the data set with IGF-1 (once-daily 3 mg/kg, day 7); “approximately 50.6%” with IGF-1 (twice-daily 3 mg/kg, day 1); “approximately 15.4%” in the data set with IGF-1 (twice-daily 3 mg/kg, day 4); approximately 13.3% in the data set with IGF-1 (twice-daily 3 mg/kg, day 7). Moreover, the toxicological responses entry in data set [1] and in data set [3] was “no toxicological responses were noted” throughout. Also, in data set [2], the observed food consumption entry is “did not reveal any significant increases in food consumption”. In addition, the “serum IGF-1 levels relative to deionized water” value in data set [4] (days 2, 4 and 7 of treatment, both doses) is recorded as “remained consistently higher”.
